# Reference: US20250228865A1, “COMPOUNDS FOR ENHANCING READ THROUGH OF GENES CONTAINING PREMATURE TERMINATION CODONS AND METHODS FOR MAKING AND USING THE SAME” (Sanofi US Services Inc., priority 2022, published 2025)
# Legend:
# [1] = test system: recombinant human CFTR carrying the premature stop codon (PTC) mutation R1162X; assay: CFTR-PTC mutant translation readthrough, Nanoluc tagged CFTR luminescence (R1162X cell line); type: cell-based; details: for CFTR R1162X ACTIVITY Fold 10 μM G-418: fold over 10 μM G-418, in combination with G418; for EC50: in combination with G418, 16HBE cells, read-out: CFTR R1162X ACTIVITY EC50
# Method in brief: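 16HBE cells stably expressing Nanoluc-tagged human CFTR with G542X or R1162X, in medium with 3 μM VX-809, treated 48 h at 37 °C with compound (10-point, 2-fold, top 50 μM final) alone or with 10 μM G418. Live-cell Nanoluc luminescence normalised to a maximally effective G418 (125-250 μM).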
# [2] = test system: recombinant human CFTR carrying the premature stop codon (PTC) mutation G542X; assay: CFTR-PTC mutant translation readthrough, Nanoluc tagged CFTR luminescence (G542X cell line); type: cell-based; details: in combination with G418, G542X cell line; for CFTR G542X ACTIVITY Fold 10 μM G-418: fold over 10 μM G-418; for EC50: 16HBE cells
# Experimental: 16HBE human bronchial epithelial cells (stably over-expressing recombinant human CFTR carrying the premature stop codon (PTC) mutation G542X or R1162X along with a Nanoluc tag incorporated into the CFTR channel within extracellular loop 4 in G542X cell line or C-terminus end in the R1162X cell line were seeded at 0.01×10^6 cells/well and grown in Minimal Essential Medium (MEM) as monolayers in 384 well plates and incubated at 37° C. with 5% CO2. Media was changed every other day until day of experiment. Agents to be evaluated were made up in separate 384 well, polypropylene plates at a 2X the final desired test concentration. Test agent 10-point concentration response curves were constructed using the Labcyte Echo 555 acoustic dispenser. Test agents were typically tested at a max final test concentrations of 50 μM with sequential 2-fold lower concentrations below this in the absence or presence of a fixed 10 μM concentration of the aminoglycoside G418 made up in MEM growth media (reduced Serum Media+HEPES Buffer+2.4 g/L Sodium Bicarbonate+L-Glutamine containing CFTR corrector VX-809 (3 μM)). Treatment with 10 μM G418 alone produced approximately 10% of the response observed with a maximally effective concentration of G418 (typically 125-250 μM). Test agent effects in presence of 10 μM G418 were compared to control wells on the plate containing a maximally effective concentration of G418 (typically 125-250 μM) made up in the same media. 25 ul of test agents/control solutions were transferred from the compound plate to the cell plate, which already contained 25 ul/well of cell plating media, using an Integra Viaflo 384. Cell plates were incubated with the compounds for 48 hours, at which time they were processed using Nanoluc luminescence Kit (Promega Nano-Glo Live Cell Assay System) to measure CFTR-PTC mutant translation readthrough. Luminescence was measured as follows. Cell plates were removed from the incubator and allowed to equilibrate to room temperature for 20 minutes. Media was removed from all wells and the plates were blotted to remove excess remaining volume. Nano-Glo Live Cell Substrate was diluted 1:20 in the appropriate amount of Nano-Glo LCS Dilution Buffer to accommodate the number of cell plates being tested. The substrate/dilution buffer mix was then diluted 1:3 with MEM media to make the appropriate volume for the number of plates being tested. The substrate/dilution buffer/OptiMEM mix was added across the Nanoluc testing cell plates and the plates were read for luminescence signal immediately. Test agent effects on CFTR translation readthrough was determined by normalizing any observed increase in luminescence induced by 48 hours pretreatment with test compound to the magnitude of luminescence increase produced by pretreatment with a maximally effective concentration of the reference readthrough enhancing agent G418 (125-250 μM).
SMILES,CFTR R1162X ACTIVITY Fold 10 μM G-418 [1],EC50 [1] [nM],CFTR G542X ACTIVITY Fold 10 μM G-418 [2],EC50 [2] [nM]
CN(C)CC1CN(c2ncc(OCc3c(Cl)cccc3Cl)cn2)CCO1 (centres unmarked),B′ (B′ = ≥5X to <10X),> 10000,A′ (A′ = ≥10X),> 10000
CCc1cccc(C(F)(F)F)c1COc1ccc(N2CC(CO)NC2=O)cc1 (centres unmarked),A′ (A′ = ≥10X),1000 to 10000,A′ (A′ = ≥10X),< 1000
Cc1cccc(C(F)(F)F)c1COc1ccc(-n2cnc(C(N)=O)n2)cc1,A′ (A′ = ≥10X),< 1000,B′ (B′ = ≥5X to <10X),< 1000
O=C1CCN(c2ncc(OCc3c(Cl)cccc3C(F)(F)F)cn2)C(=O)N1,,> 10000,C′ (C′ = <5X),1000 to 10000
NC(=O)c1ccn(-c2ncc(OCc3c(Cl)cccc3C(F)(F)F)cn2)n1,A′ (A′ = ≥10X),< 1000,A′ (A′ = ≥10X),< 1000
Cc1cccc(C(F)(F)F)c1COc1cnc(N2CCC(C(N)=O)C2)nc1 (centres unmarked),A′ (A′ = ≥10X),1000 to 10000,A′ (A′ = ≥10X),< 1000
Cc1cccc(C(F)(F)F)c1COc1cnc(N2C(=O)CN(Cc3ccccc3)C2=O)nc1,A′ (A′ = ≥10X),< 1000,A′ (A′ = ≥10X),< 1000
Cc1cccc(C(F)(F)F)c1COc1ccc(N2C(=O)CN(C)C2=O)cc1,A′ (A′ = ≥10X),1000 to 10000,A′ (A′ = ≥10X),< 1000
Cc1cccc(C(F)(F)F)c1COc1cnc(NC(=O)N(C)C)nc1,C′ (C′ = <5X),1000 to 10000,A′ (A′ = ≥10X),1000 to 10000
Cc1cccc(C(F)(F)F)c1COc1cnc(N2CCN(CCOCCO)CC2)nc1,A′ (A′ = ≥10X),1000 to 10000,A′ (A′ = ≥10X),1000 to 10000
Cc1cccc(C(F)(F)F)c1COc1cnc(N2CCN(C(N)=O)C(CO)C2)nc1 (centres unmarked),A′ (A′ = ≥10X),< 1000,A′ (A′ = ≥10X),< 1000
O=C1OC(CO)CN1c1ccc(OCc2c(Cl)cccc2OC(F)F)cc1 (centres unmarked),B′ (B′ = ≥5X to <10X),> 10000,C′ (C′ = <5X),1000 to 10000
O=C1OC(CO)CN1c1ccc(OCc2c(Cl)cccc2C2CC2)cc1 (centres unmarked),A′ (A′ = ≥10X),1000 to 10000,A′ (A′ = ≥10X),1000 to 10000
O=C1CN(c2ncc(OCc3c(Cl)cccc3Cl)cn2)CCN1CCO,A′ (A′ = ≥10X),1000 to 10000,A′ (A′ = ≥10X),1000 to 10000
NC(=O)N1CCN(c2ncc(OCc3c(Cl)cccc3Cl)cn2)CC(O)C1 (centres unmarked),A′ (A′ = ≥10X),1000 to 10000,A′ (A′ = ≥10X),1000 to 10000
Cc1cccc(C(F)(F)F)c1COc1cnc(N(C)CCCCO)nc1,A′ (A′ = ≥10X),< 1000,A′ (A′ = ≥10X),< 1000
Cc1cccc(C(F)(F)F)c1COc1cnc(-n2ncc(-c3ccccn3)n2)nc1,A′ (A′ = ≥10X),< 1000,A′ (A′ = ≥10X),< 1000
Cc1cccc(C(F)(F)F)c1COc1ccc(N2C(=O)NC(C)(C)C2=O)cc1,A′ (A′ = ≥10X),< 1000,A′ (A′ = ≥10X),< 1000

SMILES,CFTR R1162X ACTIVITY Fold 10 μM G-418 [1],EC50 [1] [nM],CFTR G542X ACTIVITY Fold 10 μM G-418 [2],EC50 [2] [nM]
Cc1cccc(C(F)(F)F)c1COc1cnc(N2CC(CO)OCC2=O)nc1 (centres unmarked),A′ (A′ = ≥10X),1000 to 10000,A′ (A′ = ≥10X),1000 to 10000
O=CNCC1CCCN(c2ncc(OCc3c(Cl)cccc3Cl)cn2)C1 (centres unmarked),B′ (B′ = ≥5X to <10X),1000 to 10000,B′ (B′ = ≥5X to <10X),1000 to 10000
CS(=O)(=O)NCC1CN(c2ncc(OCc3c(Cl)cccc3Cl)cn2)CCO1 (centres unmarked),B′ (B′ = ≥5X to <10X),1000 to 10000,A′ (A′ = ≥10X),1000 to 10000
O=C(NCC1CN(c2ncc(OCc3c(Cl)cccc3Cl)cn2)CCO1)C(F)(F)F (centres unmarked),B′ (B′ = ≥5X to <10X),1000 to 10000,A′ (A′ = ≥10X),1000 to 10000
Cc1cccc(C(C)(F)F)c1COc1ccc(-n2cc(CO)nn2)cc1,B′ (B′ = ≥5X to <10X),1000 to 10000,B′ (B′ = ≥5X to <10X),1000 to 10000
OCc1ncn(-c2ccc(OCc3c(Cl)cccc3C(F)(F)F)cn2)n1,A′ (A′ = ≥10X),< 1000,A′ (A′ = ≥10X),< 1000
OCc1ncn(-c2ncc(OCc3c(Cl)cccc3C(F)(F)F)cn2)n1,A′ (A′ = ≥10X),1000 to 10000,A′ (A′ = ≥10X),< 1000
Cc1cccc(C(F)(F)F)c1COc1cnc(-n2cnc(CO)n2)nc1,A′ (A′ = ≥10X),1000 to 10000,A′ (A′ = ≥10X),< 1000
Cc1cccc(C(F)(F)F)c1COc1ccc(-n2cnc(CO)n2)nc1,A′ (A′ = ≥10X),< 1000,A′ (A′ = ≥10X),< 1000
Cc1cccc(C(F)(F)F)c1COc1cnc(N2CCC(CO)C2)nc1 (centres unmarked),A′ (A′ = ≥10X),< 1000,A′ (A′ = ≥10X),< 1000
Cc1cccc(C(F)(F)F)c1COc1cnc(N2CCC[C@@H](O)C2)nc1,A′ (A′ = ≥10X),1000 to 10000,A′ (A′ = ≥10X),< 1000
Cc1cccc(C(F)(F)F)c1COc1cnc(N2CCC[C@H](O)C2)nc1,A′ (A′ = ≥10X),< 1000,A′ (A′ = ≥10X),< 1000
Cc1cccc(C(F)(F)F)c1COc1cnc(N2CCOC(CN)C2)nc1 (centres unmarked),A′ (A′ = ≥10X),< 1000,A′ (A′ = ≥10X),< 1000
Cc1cccc(C(F)(F)F)c1COc1cnc(N2CCC(CO)(CO)CC2)nc1,A′ (A′ = ≥10X),< 1000,A′ (A′ = ≥10X),< 1000
Cc1cccc(C(F)(F)F)c1COc1cnc(N2CCO[C@H](CN)C2)nc1,A′ (A′ = ≥10X),< 1000,A′ (A′ = ≥10X),< 1000
NC[C@@H]1CN(c2ncc(OCc3c(Cl)cccc3Cl)cn2)CCO1,A′ (A′ = ≥10X),1000 to 10000,B′ (B′ = ≥5X to <10X),< 1000
Cc1cccc(C(F)(F)F)c1COc1cnc(N2CCO[C@@H](CN)C2)nc1,A′ (A′ = ≥10X),< 1000,A′ (A′ = ≥10X),< 1000
NC[C@H]1CN(c2ncc(OCc3c(Cl)cccc3Cl)cn2)CCO1,A′ (A′ = ≥10X),1000 to 10000,A′ (A′ = ≥10X),< 1000
